T1: immature StHSD (not heat-treated) (Sulfurisphaera tokodaii, UniProt F9VNG5)
T1 construct: gene hom; full length (residues 1-304 described), recombinant from plasmid pSTHSD in E. coli BL21 at 310 K, purified without heat treatment; homodimer with C303-C303 intersubunit disulfide (oxidized)
T1 sequence (F9VNG5 1-304): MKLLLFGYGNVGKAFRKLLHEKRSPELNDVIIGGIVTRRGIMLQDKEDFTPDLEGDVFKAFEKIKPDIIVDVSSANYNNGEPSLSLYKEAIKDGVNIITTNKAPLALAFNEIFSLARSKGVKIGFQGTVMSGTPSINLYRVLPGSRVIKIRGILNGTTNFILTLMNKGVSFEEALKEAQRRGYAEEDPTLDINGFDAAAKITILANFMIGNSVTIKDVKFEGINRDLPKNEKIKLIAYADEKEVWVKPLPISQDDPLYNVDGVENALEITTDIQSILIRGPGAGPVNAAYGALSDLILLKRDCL

T2: mature StHSD (heat-treated) (Sulfurisphaera tokodaii, UniProt F9VNG5)
T2 construct: gene hom; full length (residues 1-304 described), recombinant from plasmid pSTHSD in E. coli BL21, matured by heat treatment (343 K); homodimer
T2 sequence (F9VNG5 1-304): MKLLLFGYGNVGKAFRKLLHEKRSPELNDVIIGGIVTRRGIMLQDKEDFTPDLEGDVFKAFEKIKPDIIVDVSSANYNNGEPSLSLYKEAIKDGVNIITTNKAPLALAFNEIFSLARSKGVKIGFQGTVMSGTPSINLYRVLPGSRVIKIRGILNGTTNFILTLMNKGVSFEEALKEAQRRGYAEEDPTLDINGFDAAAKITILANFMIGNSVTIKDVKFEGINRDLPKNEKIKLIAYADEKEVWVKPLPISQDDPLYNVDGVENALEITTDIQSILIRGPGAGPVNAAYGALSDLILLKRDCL


How the values were obtained:
[1] = target: T1, immature StHSD (not heat-treated); test: initial velocity of NADH production at […] nm; Morrison fit; format: biochemical; conditions: read-out: apparent Ki
[2] = target: T2, mature StHSD (heat-treated); test: as above; format: biochemical; conditions: read-out: apparent Ki
[3] = target: the molecule itself; test: crystal structure; hanging-drop vapor diffusion at 295 K; immature enzyme as apo-form (IM) and with NADP+ and 1,4-butanediol (IM/NADP/BU); space group P2(1), two subunits in the asymmetric unit

Ki [1] | Ki [2] | Molecule | stoichiometry N [3]
26 ± 1.7 µM | 48 ± 1.2 µM | NC(=O)c1ccc[n+]([C@@H]2O[C@H](COP(=O)(O)OP(=O)(O)OC[C@H]3O[C@@H](n4cnc5c(N)ncnc54)[C@H](OP(=O)(O)O)[C@@H]3O)[C@@H](O)[C@H]2O)c1 [NADP^+] | 
 |  | homoserine dehydrogenase from the hyperthermophilic archaeon Sulfurisphaera tokodaii strain 7 (StHSD), immature enzyme (enzyme, disulfide bond between the C303 residues of the two subunits, homoserine dehydrogenase, Sulfurisphaera tokodaii strain 7; The same recombinant enzyme after heat treatment is called the mature enzyme (cited structures 4YDR, 5X9D); The IM/NADP/BU crystal form also holds NADP+ and 1,4-butanediol; also called immature StHSD; IM/NADP/BU; source: Blue Sepharose for the apo-form) MKLLLFGYGNVGKAFRKLLHEKRSPELNDVIIGGIVTRRGIMLQDKEDFTPDLEGDVFKAFEKIKPDIIVDVSSANYNNGEPSLSLYKEAIKDGVNIITTNKAPLALAFNEIFSLARSKGVKIGFQGTVMSGTPSINLYRVLPGSRVIKIRGILNGTTNFILTLMNKGVSFEEALKEAQRRGYAEEDPTLDINGFDAAAKITILANFMIGNSVTIKDVKFEGINRDLPKNEKIKLIAYADEKEVWVKPLPISQDDPLYNVDGVENALEITTDIQSILIRGPGAGPVNAAYGALSDLILLKRDCL | 2 subunits

From article PMC9283420, “Conformational changes in the catalytic region are responsible for heat-induced activation of hyperthermophilic homoserine dehydrogenase” (Communications Biology, 2022)
